# Source: patent publication US20130029928A1 (priority 2010, published 2013)
# Where “and” joins values, the source holds several entries; their conditions need not be identical. Identical values can stand only once. Like-named read-outs stand apart in the source and are kept apart here.
# Key:
# Canine Hepatocytes = experiment: ATP depletion cytotoxicity assay 48 hr; assay type: cell-based; settings: Canis lupus familiaris, Hepatocyte, Study CXR0798, read-out: IC50 1
# Description: (§3) The SRB assay was performed according to the method specified by the NIC/NIH. […] Assay replicates were independent in time and up to 4 replicates were performed per cell line.
# [1] = test system: panel of human tumour-derived cell lines; experiment: BrdU incorporation (cell proliferation) in the SRB cell line panel; assay type: cell-based; settings: 48 hrs
# H (chondrosarcoma) = experiment: ATP depletion cytotoxicity assay 48 hr; settings: H
# Description: (§4) Assay replicates were independent in time and up to 4 replicates were performed per cell line.
# (§5) Cells were plated at the optimal plating density for that cell line in 96-well plates and allowed to attach overnight. The next day, the medium was removed and replaced with fresh medium containing the dose ranges of test items. […] There were 3 replicates for each test item concentration.
# Cells were plated at the optimal plating density for that cell line in 96-well plates and allowed to attach overnight. The next day, cells were pre-treated with the inhibitors UO126 or LY294002 (see Tables 18 & 20) for 2 hrs, the medium was removed and replaced with fresh medium containing the appropriate dose of the test item. […] Cells that were to be treated with DPQ received no pre-treatment. […] There were 3 replicates for each test item concentration.
# A2780 = experiment: SRB cytotoxicity assay 48 hr; assay type: cell-based, human; settings: read-out: IC50 Values After 48 Hrs Exposure
# Description: as §3
# CYP2C9 = CYP2C9 (Homo sapiens, UniProt P11712); experiment: Cytochrome P450 isozyme inhibition; assay type: in vitro ADME; settings: under the conditions used (unpublished data); read-out: IC50 towards CYP2C9
# CYP2C9, sequence (P11712 whole entry): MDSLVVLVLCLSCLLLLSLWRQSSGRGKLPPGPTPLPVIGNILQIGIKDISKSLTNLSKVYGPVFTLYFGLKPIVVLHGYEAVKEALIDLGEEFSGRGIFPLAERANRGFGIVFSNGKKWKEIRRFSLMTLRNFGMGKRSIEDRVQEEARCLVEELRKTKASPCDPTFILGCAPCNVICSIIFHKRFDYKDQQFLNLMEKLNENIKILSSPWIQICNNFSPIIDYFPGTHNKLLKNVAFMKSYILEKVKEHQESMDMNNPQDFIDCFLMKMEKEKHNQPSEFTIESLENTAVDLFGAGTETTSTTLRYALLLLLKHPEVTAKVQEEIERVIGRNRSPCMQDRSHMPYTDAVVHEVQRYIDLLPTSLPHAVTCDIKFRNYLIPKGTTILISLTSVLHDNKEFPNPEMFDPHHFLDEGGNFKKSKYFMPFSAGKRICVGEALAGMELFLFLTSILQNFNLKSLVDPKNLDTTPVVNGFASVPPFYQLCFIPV
# Text: There is no evidence that APFO is metabolised in mammals once dissociated to form perfluorooctanoate.
# PC3 [2] = experiment: ATP depletion cytotoxicity assay 48 hr; assay type: cell-based, human
# Description: as §4, §5
# (§6) Following exposure to Test Items, the CellTitre-Glo Luminescent Cell Viability Assay to measure ATP content was performed according to the manufacturer's detailed instructions (Promega Corporation, Technical Bulletin No. 288, and Cell notes, Issue 10, 2004).
# (§7) Cells were plated at the optimal plating density for that cell line in 96-well plates and allowed to attach overnight. The next day, cells were pre-treated with the inhibitors UO126 or LY294002 (see Tables 18 & 20) for 2 hrs, the medium was removed and replaced with fresh medium containing the appropriate dose of the test item. […] Cells were exposed to these compounds in Roswell Park Memorial Institute (RPMI) medium containing 10% Foetal Calf Serum (FCS) and 2 mM Glutamine at 37° C. and 5% CO2 for 48 hours. There were 3 replicates for each test item concentration.
# (§8) Following exposure to Test Items, the CellTitre-Glo Luminescent Cell Viability Assay to measure ATP content will be performed according to the manufacturer's detailed instructions (Promega Corporation, Technical Bulletin No. 288, and Cell notes, Issue 10, 2004).
# MES-SA = experiment: ATP depletion cytotoxicity assay 48 hr; assay type: cell-based; settings: Homo sapiens, Study CXR0798, read-out: IC50 1
# Description: as §3
# MDA-MB-157 [3] = experiment: ATP depletion cytotoxicity assay 48 hr; assay type: cell-based, human
# Description: as §4, §5, §6, §7, §8
# [4] = test system: PC3 (prostate) xenograft tumours; experiment: PC3 xenograft in nude mice; assay type: in vivo, nude mouse
# Description: (§1) A parallel experiment was carried out using the prostate tumour cell line PC3.
# (§2) These effects are consistent with a transient effect on the liver associated with mild toxicity and reversible liver enlargement. In rodents, this type of effect is usually due to hepatic PPARα activation associated with peroxisome proliferation.
# [5] = PC3 xenograft in nude mice; assay type: in vivo, nude mouse; settings: nude, mouse, plasma, intraperitoneal; PC3 model; 25 mg/kg three times weekly; 24 hrs post last dose; Day 29
# Description: as §1, §2
# [6] = test system: patients with advanced cancer; experiment: Phase I study CXR1002-001: plasma HDL-C and LDL-C; assay type: in vivo, human; settings: 6 weeks of treatment, % baseline
# Text: Individual patient raw data was captured and represented in graphs as % change from baseline (screening). […] Data represents either mean±SEM values or median, range+individual data points.
# OV-90 = experiment: ATP depletion cytotoxicity assay 48 hr; assay type: cell-based, human
# Description: as §4, §5, §6, §7, §8
# [7] = test system: panel of tumour cell lines; experiment: ATP cytotoxicity assay on the panel of tumour cell lines (CXR1002 alone; test items alone vs combined with CXR1002); settings: Homo sapiens, read-out: cytotoxicity IC50 to tumour cells (lowest of range)
# Description: as §3
# Cells were plated at the optimal plating density for that cell line in 96-well plates and allowed to attach overnight. The next day, the medium was removed and replaced with fresh medium containing the dose ranges of test items. The cells were exposed to 5-FU, cisplatin, docetaxel, doxorubicin, geldanamycin, gemcitabine, rapamycin or roscovitine in Roswell Park Memorial Institute (RPMI) medium containing 10% Foetal Calf Serum (FCS) and 2 mM Glutamine at 37° C. and 5% CO2 for 48 hours. […] There were 3 replicates for each test item concentration.
# as §6
# PANC-1 = experiment: ATP depletion cytotoxicity assay 48 hr; assay type: cell-based, human
# Description: as §6
# Cells were plated at the optimal plating density for that cell line in 96-well plates and allowed to attach overnight. […] Cells were exposed to these compounds in Roswell Park Memorial Institute (RPMI) medium containing 10% Foetal Calf Serum (FCS) and 2 mM Glutamine at 37° C. and 5% CO2 for 48 hours. There were 3 replicates for each test item concentration.
# as §8
# MDA-MB-157 [8] = experiment: SRB cytotoxicity assay 48 hr; assay type: cell-based, human; settings: read-out: IC50 Values After 48 Hrs Exposure
# Description: as §3
# TOV-21G = experiment: ATP depletion cytotoxicity assay 48 hr; assay type: cell-based, human
# Description: as §4, §5, §6, §7, §8
# PANC-1 cells = experiment: Western blot of PCNA and cleaved PARP in PANC-1 cells; assay type: cell-based, human; settings: 450 μM, 24 hrs
# Description: PCNA is a marker for cell proliferation and cleaved PARP is representative of caspase cleavage and apoptosis. […] Western blot analysis was performed with increasing amounts of protein, ranging between 2 and 20 μg (lanes 1-8). Positive control protein was derived from MCF7 cells (PCNA blot, lane 9) or from HeLa cells treated with staurosporine for 3 hours (Cleaved PARP blot, lanes 9, 10). Levels of total β-Actin are shown as a control for protein loading.
# Cells respond to the accumulation of unfolded proteins in the ER by a rescue process called the unfolded protein response (UPR). However, if the unfolded protein accumulation is persistent and the stress cannot be relieved, UPR signalling switches from prosurvival to proapoptotic (Kim (2006)), (Szegezdi (2006)), usually involving processing of caspases (Chang (2006)). Consistent with this hypothesis, CXR1002-treated PANC-1 cells show reduced proliferation and cleavage of the caspase substrate poly-ADP ribose polymerase (PARP) (FIG. 2) in PANC-1 cells.
# PC3 [9] = experiment: SRB cytotoxicity assay 48 hr; assay type: cell-based, human; settings: read-out: IC50 Values After 48 Hrs Exposure
# Description: as §3
# HepG2 = experiment: ATP depletion cytotoxicity assay 48 hr; assay type: cell-based, human
# Description: as §4, §5, §6, §7, §8
# OVCAR-3 = experiment: ATP depletion cytotoxicity assay 48 hr; assay type: cell-based; settings: Homo sapiens
# Description: as §4, §5, §6
# Cells were plated at the optimal plating density for that cell line in 96-well plates and allowed to attach overnight. The next day, cells were pre-treated with the inhibitors UO126 or LY294002 (see Tables 18 & 20) for 2 hrs, the medium was removed and replaced with fresh medium containing the appropriate dose of the test item. […] Cells were exposed to these compounds in Roswell Park Memorial Institute (RPMI) medium containing 10% Foetal Calf Serum (FCS) and 2 mM Glutamine at 37° C. and 5% CO2 for 48 hours. There were 3 replicates for each test item concentration. […]
# [10] = read-out: IC50 1-4 (independent replicates)
# [11] = ATP depletion, 48 hrs, read-out: IC50 1-4 (independent replicates)
smiles,measurement,setting,value
O=C(O)C(F)(F)C(F)(F)C(F)(F)C(F)(F)C(F)(F)C(F)(F)C(F)(F)F [CXR1002],IC50,Canine Hepatocytes,240 µM
same,BrdU incorporation,[1]; 10 μM,No marked effects
same,BrdU incorporation,[1]; 30 μM,variable
same,BrdU incorporation,"[1]; 300 μM, all but one of the cell lines",Significant suppression of BrdU incorporation
same,IC50,"H (chondrosarcoma); Example 7, 48 hour, CXR1002 0-1 mM, U0126 fixed 10 μM where combined",817 µM
same,IC50,"H (chondrosarcoma); read-out: IC50 1-4 (independent replicates), ATP depletion, 48 hrs",550 µM and 555 µM and 800 µM
same,IC50,"H (chondrosarcoma); read-out: IC50 Mean, ATP depletion, 48 hrs",635 µM
same,IC50,A2780,238 ± 7.5 µM
same,IC50,CYP2C9,0.76 µM
same,IC50,"PC3 [2]; Homo sapiens, PC-3, 48 h, read-out: IC50 1-4 (independent replicates)",650 µM
same,IC50,"PC3 [2]; Homo sapiens, PC-3, 48 h, read-out: IC50 Mean",642 µM
same,IC50,PC3 [2]; [10],625 µM
same,IC50,MES-SA,> 1000 µM
same,IC50,"MDA-MB-157 [3]; Homo sapiens, MDA-MB-157, 48 h, read-out: IC50 1-4 (independent replicates), ATP depletion, 48 hrs, MDA-MB-157",670 µM
same,IC50,"MDA-MB-157 [3]; Homo sapiens, MDA-MB-157, 48 h, read-out: IC50 Mean, ATP depletion, 48 hrs, MDA-MB-157",665 µM
same,IC50,"MDA-MB-157 [3]; read-out: IC50 1-4 (independent replicates), ATP depletion, 48 hrs, MDA-MB-157",675 µM and 650 µM
same,effect on tumours,"[4]; 5, 15 and 25 mg/kg i.p.",marked anti-tumour effect
same,increase in plasma ALT,[4]; PC3-tumour bearing mice,up to 1.8 fold
same,Absolute Tumour Volume as a Percentage of Saline Control,"[4]; PC3, 25 mg/kg i.p., Day 25",19.14%
same,effect on body weight,[4]; PC3 model,No marked effects on body weight
same,liver weight,[4]; PC3 model,increase in liver weight
same,Terminal / maximum CXR1002 plasma level,"[4]; PC3 model, 25 mg/kg three times weekly, 24 hrs post last dose, Day 29",281 µM
same,increase in plasma AST,[4]; mice bearing PC3 xenografts,up to 3.5 fold
same,plasma glucose and triglyceride levels,"[4]; tumour-bearing nude mice, PC-3",slight reductions
same,concentration at 24 h,[5],281 µM
same,effect on plasma HDL-C,[6],remains unchanged
same,effect on plasma LDL-C,[6],lowering effect
same,IC50,OV-90; [11],670 µM
same,IC50,"OV-90; Homo sapiens, OV-90, 48 h, ATP depletion, 48 hrs, read-out: IC50 1-4 (independent replicates)",650 µM
same,IC50,"OV-90; Homo sapiens, OV-90, 48 h, ATP depletion, 48 hrs, read-out: IC50 Mean",657 µM
same,IC50,"OV-90; Homo sapiens, OV-90, 48 h, Example 7, 48 hour, CXR1002 0-1 mM, U0126 fixed 10 μM where combined, read-out: IC50",714 µM
same,IC50,[7],≥ 273 µM
same,IC50,PANC-1; [11],> 1 mM (2×) and 880 µM
same,IC50,"PANC-1; Homo sapiens, PANC-1, 48 h, ATP depletion, 48 hrs, read-out: IC50 1-4 (independent replicates)",> 1000 µM
same,IC50,"PANC-1; Homo sapiens, PANC-1, 48 h, ATP depletion, 48 hrs, read-out: IC50 Mean",> 1000 µM
same,IC50,"PANC-1; Homo sapiens, PANC-1, 48 h, Example 7, 48 hour, CXR1002 0-1 mM, U0126 fixed 10 μM where combined, read-out: IC50",> 1000 µM
same,IC50,MDA-MB-157 [8],463 ± 168 µM
same,IC50,TOV-21G; [11],600 µM and 700 µM
same,IC50,"TOV-21G; Homo sapiens, TOV21G, 48 h, ATP depletion, 48 hrs, read-out: IC50 1-4 (independent replicates)",610 µM
same,IC50,"TOV-21G; Homo sapiens, TOV21G, 48 h, ATP depletion, 48 hrs, read-out: IC50 Mean",637 µM
same,IC50,"TOV-21G; Homo sapiens, TOV21G, 48 h, Example 7, 48 hour, CXR1002 0-1 mM, U0126 fixed 10 μM where combined, read-out: IC50",615 µM
same,PCNA protein level (cell proliferation marker),PANC-1 cells,reduced PCNA levels
same,cleaved PARP protein level (apoptosis marker),PANC-1 cells,increased cleaved PARP
same,IC50,PC3 [9],272 ± 40.7 µM
same,IC50,"HepG2; Homo sapiens, HepG2, 48 h, read-out: IC50 1-4 (independent replicates)",240 µM
same,IC50,"HepG2; Homo sapiens, HepG2, 48 h, read-out: IC50 Mean",273 µM
same,IC50,HepG2; [10],230 µM and 350 µM
same,IC50,OVCAR-3; [10],650 µM
same,IC50,OVCAR-3; read-out: IC50 Mean,650 µM
